Measured values: patent publication US10434135B2, “Pharmaceutical composition for preventing or treating arthritis” (Samsung Life Public Welfare Foundation, priority 2015, dated 2019)
Ends that are not written are not given here.

Details: rat, in vivo
Excerpt: The stained samples were examined under a fluorescence microscope (Eclipse TE2000U) at 200× magnification and photographed from 4 randomly selected areas. Then, the images with specific expressions were processed using the imageJ program and then quantified.

substance P retained in the knee joints: retained in the knee joints of rats
Sequence: KLDLKLDLKLDLRPKPQQFFGLM [KLD12-SP]
